Test results as given in US10710978B2, “STK4 inhibitors for treatment of hematologic malignancies” (Dana-Farber Cancer Institute, Inc., priority 2015, dated 2020).
Blank lines part the entries; values can stand above or below the compound they belong to.

What was measured:
CLK1 = CLK1 (Homo sapiens (Human), UniProt P49759); experiment: Ambit KINOSCAN assay; format: binding; conditions: read-out: percent control (%) at 1 uM
Description: (§1) Kinase Selectivity Studies
(§2) To directly test the kinase selectivity of a compound of the present application over other human protein kinases, the compounds were tested in an Ambit KINOSCAN assay. Ambit KINOSCAN assay is an ATP site dependent competition assay. T7 kinase-tagged phage strains were grown in parallel in 24- or 96-well blocks in an E. coli host derived from the BL21 strain. E. Coli were grown to log phase and infected with T7 phage from a frozen stock and incubated with shaking at about 32° C. until lysis (˜90 min). The lysates were centrifuged (6,000 g) and filtered ([…]) to remove cell debris. […] The liganded beads were blocked with excess biotin and washed with blocking buffer (Seablock (Pierce), 1% BSA, 0.05% Tween 20, 1 mM DTT) to remove unbound ligand and to reduce non-specific phage binding. Binding reactions were assembled by combining phage lysates, liganded affinity beads, and test compounds (i.e., compounds of the present application) in 1× binding buffer (20% SeaBlock, 0.17×PBS, 0.05% Tween […]). Test compounds were prepared 1000× stocks in DMSO and rapidly diluted into the aqueous environment (0.1% DMSO final). DMSO (0.1%) was used as a control. All reactions were carried out in polystyrene 96-well plates that had been pre-treated with blocking buffer in a final volume of 0.1 ml. […] The phage titer in the eluates was measured by standard plaque assays or quantitative PCR. Binding data were fit to the equation […]), where L is the lower baseline, H is the upper baseline, Kd(test) is the biding constant for the interaction between the test compound and the kinase, and [test] is the free test compound concentration. Binding constants are measured in duplicate on the same day of testing. For more details on the Ambit KINOSCAN assay see Fabian, M. A., et al. “A Small Molecule-Kinase Interaction Map for Clinical Kinase Inhibitors” Nat. Biotechol. 23(3), 2005, 329-336. (Also see Davis, M. I., et al. “Comprehensive analysis of kinase inhibitor selectivity.” Nat. Biotechnol. 29(11), 2011, 1046-1051)

MINK = MINK (Homo sapiens (Human), UniProt Q8N4C8); experiment: Ambit KINOSCAN assay; format: binding; conditions: read-out: percent control (%) at 1 uM
Description: as §1, §2

DRAK1 = DRAK1 (Homo sapiens (Human), UniProt Q9UEE5); experiment: Ambit KINOSCAN assay; format: binding; conditions: read-out: percent control (%) at 1 uM
Description: as §1, §2

CSNK1G3 = CSNK1G3 (Homo sapiens (Human), UniProt Q9Y6M4); experiment: Ambit KINOSCAN assay; format: binding
Description: as §1, §2

DCAMKL3 = DCAMKL3 (Homo sapiens (Human), UniProt Q9C098); experiment: Ambit KINOSCAN assay; format: binding; conditions: read-out: percent control (%) at 1 uM
Description: as §1, §2

STK4 = STK4 (Homo sapiens (Human), UniProt Q13043); experiment: KiNativ Platform experiment, MM.1S cell lysates, biotinylated ATP, Western blot; format: binding; conditions: 10 μM, 20 minutes, then biotinylated ATP 10 minutes
Description: FIG. 32A and FIG. 32B show the results of a KiNativ™ Platform experiment obtained after incubating MM.1S cell lysates with 10 μM of the indicated compounds for 20 minutes, followed by incubation with biotinylated ATP for 10 minutes. FIG. 32A is a graph showing the ratio of MEK2 to STK4 derived from the Western blotting band signals in FIG. 32B, in MM.1S cell lysates treated with 10 μM of Compound I-9, I-13, or I-27 or KIN001-305 followed by incubation with biotinylated ATP. FIG. 32B is a Western blot showing the levels of STK4 and MEK2 in MM.1S cells treated with 10 μM of Compound I-9, I-13, or I-27 or KIN001-305 followed by incubation with biotinylated ATP.

PARP = experiment: Western blotting; format: cell-based; conditions: H929 cells, 1 μM, 24 hours
Source text: (§3) MM.1S, KMS20 and H929 cells are counted, diluted and plated. Cells are then […] with DMSO or different concentration of a compound of the present application for 6 hrs, 24 hrs or 48 hrs. MM cells are then collected and centrifuged at RT and the pellets are re-suspended in lysis buffer. Cell lysates are subjected to sodium dodecyl sulfate-polyacrylamide gel electrophoresis SDS-PAGE, transferred to nitrocellulose membranes, and immunoblotted with different antibodies.
(§4) MM.1S, KMS20 and H929 cells were counted, diluted and plated in six-well plates to a final concentration of 500,000 cells/well. Cells were then […] with DMSO or different concentration of a compound of the present application for 6 hrs, 24 hrs or 48 hrs. MM cells were then collected and centrifuged for 5 min, 1300 rpm at RT. The pellets were re-suspended in lysis buffer Laemli 1× (Laemli 5×: SDS 10%, DTT 500 mM, Tris-HCl pH6.8 0.4M, BromoFenol Blue, Glycerol 50%). Cell lysates were subjected to sodium dodecyl sulfate-polyacrylamide gel electrophoresis SDS-PAGE, transferred to nitrocellulose membranes, and immunoblotted with different antibodies: YAP1 (#4912), p-YAP1 (S127) (#13008), LATS1 (#9153), p-LATS1 (Thr1079) (#8654), MOB1 (#3863), p-MOB1 (Thr12) (#8843), p-MST1/p-MST2 (Thr183/Thr180) (#3681), p21 (#2947), PARP (#9532), ERK, STAT, and GAPDH (#5174) from Cell Signaling, Beverly, Mass., United States; STK4 (ab57836) (from Abcam, Cambridge, Mass., United States); PUMA (sc-28226), BAX (sc-20067), from Santa Cruz, Dallas, Tex., United States; β-actin from Sigma-Aldrich (St. Louis, Mo., United States). All antibodies were diluted 1:500, except for β-actin antibody (1:50,000 dilution). In FIG. 8, H929 cells were treated with Compound I-9 or DMSO at 1 μM concentration for 24 hours. Lysates were then obtained and immunoblot was performed using antibodies against PARP, YAP1, PUMA, BAX. p21, and GAPDH.

PUMA = experiment: Western blotting; format: cell-based; conditions: H929 cells, 1 μM, 24 hours
Source text: as §3, §4

p21 = experiment: Western blotting; format: cell-based; conditions: H929 cells, 1 μM, 24 hours
Source text: as §3, §4

BAX = experiment: Western blotting; format: cell-based; conditions: H929 cells, 1 μM, 24 hours
Source text: as §3, §4

ITPK1 = ITPK1 (Homo sapiens (Human), UniProt Q13572); experiment: KiNativ assay; format: binding; conditions: H929 live cell, range class
Description: Biochemical IC50s of the compounds of the present disclosure against various kinases were measured in a KiNativ assay. Compounds were screened in duplicate at 10 μM in H929 live cell. IC50 was measured via Mass spectroscopy (MS).

CSNK1G3, sequence (Q9Y6M4 whole entry): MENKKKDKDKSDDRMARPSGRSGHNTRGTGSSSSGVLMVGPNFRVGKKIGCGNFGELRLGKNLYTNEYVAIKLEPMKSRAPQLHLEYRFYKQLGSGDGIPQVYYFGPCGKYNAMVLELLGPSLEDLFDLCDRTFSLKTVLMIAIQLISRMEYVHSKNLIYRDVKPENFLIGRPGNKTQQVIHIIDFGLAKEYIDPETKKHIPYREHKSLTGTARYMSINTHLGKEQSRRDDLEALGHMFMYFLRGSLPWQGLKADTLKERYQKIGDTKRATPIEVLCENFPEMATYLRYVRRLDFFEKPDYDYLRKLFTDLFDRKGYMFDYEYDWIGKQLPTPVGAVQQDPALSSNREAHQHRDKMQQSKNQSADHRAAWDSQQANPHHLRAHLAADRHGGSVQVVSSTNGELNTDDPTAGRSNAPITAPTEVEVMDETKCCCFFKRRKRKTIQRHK
DCAMKL3, sequence (Q9C098 whole entry): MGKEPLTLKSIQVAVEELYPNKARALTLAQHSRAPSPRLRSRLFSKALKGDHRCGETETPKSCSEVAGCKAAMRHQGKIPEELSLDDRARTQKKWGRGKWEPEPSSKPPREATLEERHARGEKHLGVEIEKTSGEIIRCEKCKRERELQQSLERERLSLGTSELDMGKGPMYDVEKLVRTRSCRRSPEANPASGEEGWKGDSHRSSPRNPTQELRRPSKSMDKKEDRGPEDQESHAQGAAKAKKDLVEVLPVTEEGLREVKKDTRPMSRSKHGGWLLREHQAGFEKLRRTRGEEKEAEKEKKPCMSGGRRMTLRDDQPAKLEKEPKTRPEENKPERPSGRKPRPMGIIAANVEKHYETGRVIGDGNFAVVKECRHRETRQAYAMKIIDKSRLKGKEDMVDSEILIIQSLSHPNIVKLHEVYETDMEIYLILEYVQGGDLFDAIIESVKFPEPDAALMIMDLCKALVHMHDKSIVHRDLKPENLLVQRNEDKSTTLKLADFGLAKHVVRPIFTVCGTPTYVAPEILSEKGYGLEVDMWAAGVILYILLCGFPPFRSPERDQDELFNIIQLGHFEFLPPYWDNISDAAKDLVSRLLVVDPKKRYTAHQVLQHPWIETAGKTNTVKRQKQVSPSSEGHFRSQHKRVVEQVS
CLK1, sequence (P49759 whole entry): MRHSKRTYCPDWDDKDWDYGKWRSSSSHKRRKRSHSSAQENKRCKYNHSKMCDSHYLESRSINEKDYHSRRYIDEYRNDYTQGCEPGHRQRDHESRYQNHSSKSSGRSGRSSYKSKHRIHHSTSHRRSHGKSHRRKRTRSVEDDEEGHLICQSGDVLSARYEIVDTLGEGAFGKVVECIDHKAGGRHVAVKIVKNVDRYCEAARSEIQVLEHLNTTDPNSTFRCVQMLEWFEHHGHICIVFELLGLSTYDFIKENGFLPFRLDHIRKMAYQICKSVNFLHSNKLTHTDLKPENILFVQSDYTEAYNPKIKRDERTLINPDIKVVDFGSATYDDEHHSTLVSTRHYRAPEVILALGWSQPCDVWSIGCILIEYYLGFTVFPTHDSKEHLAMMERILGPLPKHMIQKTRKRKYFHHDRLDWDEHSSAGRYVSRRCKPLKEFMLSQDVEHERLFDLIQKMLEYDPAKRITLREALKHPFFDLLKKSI
ITPK1, sequence (Q13572 whole entry): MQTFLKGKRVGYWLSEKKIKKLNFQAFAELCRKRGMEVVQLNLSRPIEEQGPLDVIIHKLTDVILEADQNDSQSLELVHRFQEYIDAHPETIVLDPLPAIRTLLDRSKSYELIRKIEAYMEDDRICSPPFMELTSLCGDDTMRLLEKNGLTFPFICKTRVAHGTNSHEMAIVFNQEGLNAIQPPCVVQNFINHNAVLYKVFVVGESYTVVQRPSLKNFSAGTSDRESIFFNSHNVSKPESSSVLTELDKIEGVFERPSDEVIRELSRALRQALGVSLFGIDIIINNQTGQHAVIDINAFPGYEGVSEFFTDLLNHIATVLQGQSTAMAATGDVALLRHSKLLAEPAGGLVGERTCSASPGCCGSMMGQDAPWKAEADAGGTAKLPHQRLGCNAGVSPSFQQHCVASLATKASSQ
STK4, sequence (Q13043 whole entry): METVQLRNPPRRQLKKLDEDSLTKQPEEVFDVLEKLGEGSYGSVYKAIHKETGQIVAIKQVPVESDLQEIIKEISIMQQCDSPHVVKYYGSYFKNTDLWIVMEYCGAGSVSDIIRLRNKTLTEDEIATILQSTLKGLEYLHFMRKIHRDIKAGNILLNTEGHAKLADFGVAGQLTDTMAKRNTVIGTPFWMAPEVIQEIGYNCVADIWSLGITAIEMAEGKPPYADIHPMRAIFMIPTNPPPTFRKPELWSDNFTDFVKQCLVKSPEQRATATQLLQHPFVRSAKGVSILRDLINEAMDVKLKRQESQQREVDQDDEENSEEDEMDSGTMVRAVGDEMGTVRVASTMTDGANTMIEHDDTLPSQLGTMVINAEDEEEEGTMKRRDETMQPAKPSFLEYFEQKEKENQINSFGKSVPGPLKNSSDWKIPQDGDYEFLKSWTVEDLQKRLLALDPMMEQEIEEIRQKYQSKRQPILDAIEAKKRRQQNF
DRAK1, sequence (Q9UEE5 whole entry): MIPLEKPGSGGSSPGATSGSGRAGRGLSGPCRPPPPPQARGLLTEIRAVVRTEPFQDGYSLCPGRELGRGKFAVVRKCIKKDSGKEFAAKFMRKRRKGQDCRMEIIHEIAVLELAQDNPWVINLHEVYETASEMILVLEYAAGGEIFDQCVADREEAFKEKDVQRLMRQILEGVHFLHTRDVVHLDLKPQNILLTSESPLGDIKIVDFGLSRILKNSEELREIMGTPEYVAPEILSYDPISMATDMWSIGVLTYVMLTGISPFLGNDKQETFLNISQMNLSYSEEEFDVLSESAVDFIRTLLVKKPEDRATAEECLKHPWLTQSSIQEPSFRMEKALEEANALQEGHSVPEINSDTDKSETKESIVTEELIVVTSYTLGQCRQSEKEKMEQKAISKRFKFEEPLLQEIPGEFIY
MINK, sequence (Q8N4C8 whole entry): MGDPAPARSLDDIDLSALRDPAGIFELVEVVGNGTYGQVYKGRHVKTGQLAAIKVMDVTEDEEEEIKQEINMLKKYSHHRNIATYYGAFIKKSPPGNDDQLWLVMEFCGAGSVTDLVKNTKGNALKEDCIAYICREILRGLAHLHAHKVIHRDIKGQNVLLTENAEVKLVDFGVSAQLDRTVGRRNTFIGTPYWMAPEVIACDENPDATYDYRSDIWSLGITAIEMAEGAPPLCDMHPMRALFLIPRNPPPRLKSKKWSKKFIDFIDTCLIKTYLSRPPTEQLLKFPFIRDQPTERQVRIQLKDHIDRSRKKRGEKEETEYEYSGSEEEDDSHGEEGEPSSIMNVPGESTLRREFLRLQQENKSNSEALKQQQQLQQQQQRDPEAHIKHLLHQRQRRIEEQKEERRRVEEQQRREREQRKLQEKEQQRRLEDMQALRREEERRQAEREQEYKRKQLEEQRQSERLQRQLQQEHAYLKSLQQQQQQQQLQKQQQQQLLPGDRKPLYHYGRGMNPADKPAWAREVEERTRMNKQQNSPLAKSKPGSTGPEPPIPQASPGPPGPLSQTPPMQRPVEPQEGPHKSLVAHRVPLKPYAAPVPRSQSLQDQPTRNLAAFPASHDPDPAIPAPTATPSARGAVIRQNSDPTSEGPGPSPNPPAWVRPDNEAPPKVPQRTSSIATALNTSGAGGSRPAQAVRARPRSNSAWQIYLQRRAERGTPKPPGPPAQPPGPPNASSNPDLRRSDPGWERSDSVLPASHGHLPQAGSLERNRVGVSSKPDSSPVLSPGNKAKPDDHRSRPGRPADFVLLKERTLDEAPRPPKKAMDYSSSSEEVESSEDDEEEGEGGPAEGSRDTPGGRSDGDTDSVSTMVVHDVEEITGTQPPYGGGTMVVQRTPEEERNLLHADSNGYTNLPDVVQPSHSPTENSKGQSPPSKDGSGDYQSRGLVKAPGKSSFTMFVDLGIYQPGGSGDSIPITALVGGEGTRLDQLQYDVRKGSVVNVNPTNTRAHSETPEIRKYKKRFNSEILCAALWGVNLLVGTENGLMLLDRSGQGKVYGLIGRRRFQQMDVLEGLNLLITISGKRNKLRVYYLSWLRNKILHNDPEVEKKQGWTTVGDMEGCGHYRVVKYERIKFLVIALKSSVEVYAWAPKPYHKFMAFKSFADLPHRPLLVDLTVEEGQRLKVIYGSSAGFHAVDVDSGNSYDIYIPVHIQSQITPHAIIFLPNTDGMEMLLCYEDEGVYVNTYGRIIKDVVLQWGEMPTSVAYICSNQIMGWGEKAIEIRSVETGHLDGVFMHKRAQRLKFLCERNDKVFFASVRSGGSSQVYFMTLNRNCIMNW

- remaining binding at 1 µM (CLK1): 1.6%
- remaining binding at 1 µM (MINK): 3.8%
- remaining binding at 1 µM (DRAK1): 0.15%
- IC50 (CSNK1G3; Kinase Selectivity Data, CSNK1G3): 4.68 nM
- remaining binding at 1 µM (CSNK1G3; read-out: percent control (%) at 1 uM): 0%
- remaining binding at 1 µM (DCAMKL3): 2.5%
SMILES: Nc1ncc(-c2cc([N+](=O)[O-])ccc2F)cc1-c1ccc2c(c1)CCNC2=O [Compound I-1, 6-(2-amino-5-(2-fluoro-5-nitrophenyl)pyridin-3-yl)-3,4-dihydroisoquinolin-1(2H)-one]

SMILES: Nc1ncc(-c2cccc([N+](=O)[O-])c2F)cc1-c1ccc2c(c1)CCNC2=O [Compound I-9, 6-(2-amino-5-(2-fluoro-3-nitrophenyl)pyridin-3-yl)-3,4-dihydroisoquinolin-1(2H)-one]
- affinity for STK4, as of ATP binding (STK4): highest affinity
- PARP cleavage (PARP): induction of PARP cleavage
- protein levels of PUMA (PUMA): upregulation
- protein levels of p21 (p21): upregulation
- protein levels of BAX (BAX): upregulation

SMILES: Nc1ncc(-c2ccc(NS(=O)(=O)C3CC3)cc2OC2CCCCC2)cc1-c1ccc2c(c1)CCNC2=O [Compound I-65, N-(4-(6-amino-5-(1-oxo-1,2,3,4-tetrahydroisoquinolin-6-yl)pyridin-3-yl)-3-(cyclohexyloxy)phenyl) cyclopropanesulfonamide]
- inhibition at 10 µM (ITPK1): > 100%
